The target of the assay is ATX (human His-tagged) (Homo sapiens (Human), UniProt Q13822). In words: Human ATX enzyme inhibition assay (fluorescence quenching, MR121 substrate). Type of assay: biochemical. Particulars: 30 nM ATX, 1 μM MR121 substrate, 30° C., pH 8.0. As for the experimental part: Production of Human Full Length ATX, with and without his Tag
Autotaxin (ATX-ENPP2) Cloning:
cDNA was prepared from commercial human hematopoietic cells total RNA and used as template in overlapping PCR to generate a full length human ENPP2 ORF with or without a 3′-6×His tag. These full length inserts were cloned into the pcDNA3.1V5-His TOPO (Invitrogen) vector. The DNA sequences of several single clones were verified. The DNA from a correct full length clone was used to transfect Hek293 cells for verification of protein expression. […] ATX Fermentation: Recombinant protein was produced by large-scale transient transfection in 20 L controlled stirred tank bioreactors (Sartorius). During cell growth and transfection, temperature, stirrer speed, pH and dissolved oxygen concentration were maintained at 37° C., 120 rpm, 7.1 and 30% DO, respectively. […] Expression was analyzed by Western Blot, enzymatic assay and/or analytical IMAC chromatography. After cooling the cell suspension to 4° C. in a flow-through heat exchanger, cell separation and sterile filtration of supernatant was performed by filtration through Zeta Plus 60M02 E16 (Cuno) and Sartopore 2 XLG (Sartorius) filter units. The supernatant was stored at 4° C. prior to purification. ATX Purification: 20 liter of culture supernatant were conditioned for ultrafiltration by adding Brij 35 to a final concentration of 0.02% and by adjusting the pH to 7.0 using 1 M HCl. Then the supernatant was first microfiltered through a 0.2 μm Ultran-Pilot Open Channel PES filter (Whatman) and afterwards concentrated to 1 liter through an Ultran-Pilot Screen Channel PES filter with 30 kDa MWCO (Whatman). Prior to IMAC chromatography, NiSO4 was added to a final concentration of 1 mM. The cleared supernatant was then applied to a HisTrap column (GE Healthcare) previously equilibrated in 50 mM Na2HPO4 pH 7.0, 0.5 M NaCl, 10% glycerol, 0.3% CHAPS, 0.02% NaN3. The column was washed stepwise with the same buffer containing 20 mM, 40 mM and 50 mM imidazole, respectively. The protein was subsequently eluted using a linear gradient to 0.5 M imidazole in 15 column volumes. ATX containing fractions were pooled and concentrated using an Amicon cell equipped with a 30 kDa PES filter membrane. The protein was further purified by size exclusion chromatography on Superdex S-200 prep grade (XK 26/100) (GE Healthcare) in 20 mM BICINE pH 8.5, 0.15 M NaCl, 10% glycerol, 0.3% CHAPS, 0.02% NaN3. […] The protein was stored at −80° C. […] 10 μL of MR121 substrate solution was added (1 μM final concentration), mixed 30 times and then incubated for 15 minutes at 30° C.

A word on the IC50: it is the point on the concentration scale where inhibition reaches its midpoint. Higher therefore signals a need for much substance. In turn, `NS(=O)(=O)c1ccc(C(=O)N2C[C@H]3CN(C(=O)c4cnc(OC5CCOCC5)c(C5CC5)c4)C[C@@H]3C2)cc1` [Example 1.02, 4-((3aS,6aS)-5-(5-cyclopropyl-6-(tetrahydro-2H-pyran-4-yloxy)nicotinoyl)octahydropyrrolo[3,4-c]pyrrole-2-carbonyl)benzenesulfonamide] showed an IC50 of 22 nM.

Regarding `NS(=O)(=O)c1ccc(C(=O)N2C[C@H]3CN(C(=O)c4cc(OCC5CCOCC5)nc(C5CC5)c4)C[C@@H]3C2)cc1F` [Example 1.04, 4-((3aR,6aR)-5-(2-cyclopropyl-6-((tetrahydro-2H-pyran-4-yl)methoxy)isonicotinoyl)octahydropyrrolo[3,4-c]pyrrole-2-carbonyl)-2-fluorobenzenesulfonamide], the IC50 was 8 nM.

Consider `NS(=O)(=O)c1ccc(C(=O)N2C[C@H]3CN(C(=O)c4cc(OCC5CCOCC5)nc(C5CC5)c4)C[C@@H]3C2)cc1Cl` [Example 1.05, 2-chloro-4-((3aR,6aR)-5-(2-cyclopropyl-6-((tetrahydro-2H-pyran-4-yl)methoxy)isonicotinoyl)octahydropyrrolo[3,4-c]pyrrole-2-carbonyl)benzenesulfonamide], for which the IC50 worked out at 6 nM.

`O=C(c1cc(OCC2CCOCC2)cc(C2CC2)c1)N1C[C@@H]2CN(C(=O)[C@@H]3CCc4[nH]nnc4C3)C[C@H]2C1` [Example 1.16, ((3aS,6aS)-5-(3-cyclopropyl-5-((tetrahydro-2H-pyran-4-yl)methoxy)benzoyl)hexahydropyrrolo[3,4-c]pyrrol-2(1H)-yl)((R)-4,5,6,7-tetrahydro-1H-benzo[d][1,2,3]triazol-5-yl)methanone] gave an IC50 of 6 nM.

In turn, `O=C(CCc1c[nH]c(=O)s1)N1C[C@H]2CCN(C(=O)c3cc(OCC4CCOCC4)nc(C4CC4)c3)CC[C@H]2C1` [Example 1.22, 5-(3-((3aR,8aS)-6-(2-cyclopropyl-6-((tetrahydro-2H-pyran-4-yl)methoxy)isonicotinoyl)octahydropyrrolo[3,4-d]azepin-2(1H)-yl)-3-oxopropyl)thiazol-2(3H)-one] gave an IC50 of 14 nM.

In turn, `O=C(c1cc(OCC2CCOCC2)nc(C2CC2)c1)N1C[C@@H]2CN(C(=O)c3ccc4[nH]nnc4c3)C[C@H]2C1` [Example 2.01, ((3aS,6aS)-5-(1H-benzo[d][1,2,3]triazole-5-carbonyl)hexahydropyrrolo[3,4-c]pyrrol-2(1H)-yl)(2-cyclopropyl-6-((tetrahydro-2H-pyran-4-yl)methoxy)pyridin-4-yl)methanone] displayed an IC50 of 3 nM.

`O=C(c1ccc(OC2CCOC2)c(C2CC2)c1)N1C[C@@H]2CN(C(=O)[C@@H]3CCc4[nH]nnc4C3)C[C@H]2C1` (stereo partly drawn) [Example 2.02, ((3aS,6aS)-5-(3-cyclopropyl-4-(tetrahydrofuran-3-yloxy)benzoyl)hexahydropyrrolo[3,4-c]pyrrol-2(1H)-yl)((R)-4,5,6,7-tetrahydro-1H-benzo[d][1,2,3]triazol-5-yl)methanone] registered an IC50 of 17 nM.

`O=C(c1ccc(OC2CCOC2)c(C2CC2)c1)N1C[C@@H]2CN(C(=O)c3ccc4[nH]nnc4c3)C[C@H]2C1` (stereo partly drawn) [Example 2.03, ((3aR,6aR)-5-(1H-benzo[d][1,2,3]triazole-5-carbonyl)hexahydropyrrolo[3,4-c]pyrrol-2(1H)-yl)(3-cyclopropyl-4-(tetrahydrofuran-3-yloxy)phenyl)methanone] registered an IC50 of 10 nM.

`O=C(c1cnc(NC2CCOCC2)c(C2CC2)c1)N1C[C@@H]2CN(C(=O)c3ccc4[nH]nnc4c3)C[C@H]2C1` [Example 2.04, ((3aS,6aS)-5-(1H-benzo[d][1,2,3]triazole-5-carbonyl)hexahydropyrrolo[3,4-c]pyrrol-2(1H)-yl)(5-cyclopropyl-6-(tetrahydro-2H-pyran-4-ylamino)pyridin-3-yl)methanone] came in with an IC50 of 40 nM.

`O=C(c1cnc(OC2CCOC2)c(C2CC2)c1)N1C[C@@H]2CN(C(=O)c3ccc4[nH]nnc4c3)C[C@H]2C1` (stereo partly drawn) [Example 2.05, ((3aS,6aS)-5-(1H-benzo[d][1,2,3]triazole-5-carbonyl)hexahydropyrrolo[3,4-c]pyrrol-2(1H)-yl)(5-cyclopropyl-6-(tetrahydrofuran-3-yloxy)pyridin-3-yl)methanone] gave an IC50 of 10.5 nM.

As to `O=C(c1cnc(OC2CCCOC2)c(C2CC2)c1)N1C[C@@H]2CN(C(=O)c3ccc4[nH]nnc4c3)C[C@H]2C1` (stereo partly drawn) [Example 2.06, ((3aS,6aS)-5-(1H-benzo[d][1,2,3]triazole-5-carbonyl)hexahydropyrrolo[3,4-c]pyrrol-2(1H)-yl)(5-cyclopropyl-6-(tetrahydro-2H-pyran-3-yloxy)pyridin-3-yl)methanone], half-maximal inhibition (IC50) was put at 4.5 nM.

Regarding `O=C(c1cnc(OC2CCOCC2)c(C2CC2)c1)N1C[C@@H]2CN(C(=O)c3ccc4[nH]nnc4c3)C[C@H]2C1` [Example 2.07, ((3aS,6aS)-5-(1H-benzo[d][1,2,3]triazole-5-carbonyl)hexahydropyrrolo[3,4-c]pyrrol-2(1H)-yl)(5-cyclopropyl-6-(tetrahydro-2H-pyran-4-yloxy)pyridin-3-yl)methanone], the IC50 is 10 nM.

In turn, `O=C(c1cnc(OC2COC2)c(C(F)(F)F)c1)N1C[C@@H]2CN(C(=O)c3ccc4[nH]nnc4c3)C[C@H]2C1` [Example 2.08, ((3aS,6aS)-5-(1H-benzo[d][1,2,3]triazole-5-carbonyl)hexahydropyrrolo[3,4-c]pyrrol-2(1H)-yl)(6-(oxetan-3-yloxy)-5-(trifluoromethyl)pyridin-3-yl)methanone] had a half-maximal inhibitory concentration (IC50) of 68.5 nM.

In turn, `O=C(c1cnc(OC2CCOCC2)c(C2CC2)c1)N1C[C@@H]2CN(C(=O)[C@@H]3CCc4[nH]nnc4C3)C[C@H]2C1` [Example 2.09, ((3aS,6aS)-5-(5-cyclopropyl-6-(tetrahydro-2H-pyran-4-yloxy)nicotinoyl)hexahydropyrrolo[3,4-c]pyrrol-2(1H)-yl)((R)-4,5,6,7-tetrahydro-1H-benzo[d][1,2,3]triazol-5-yl)methanone] displayed an IC50 of 20 nM.

On to `O=C(c1cnc(NC2CCOCC2)c(C2CC2)c1)N1C[C@@H]2CN(C(=O)[C@@H]3CCc4[nH]nnc4C3)C[C@H]2C1` [Example 2.11, ((3aS,6aS)-5-(5-cyclopropyl-6-(tetrahydro-2H-pyran-4-ylamino)nicotinoyl)hexahydropyrrolo[3,4-c]pyrrol-2(1H)-yl)((R)-4,5,6,7-tetrahydro-1H-benzo[d][1,2,3]triazol-5-yl)methanone], for which the IC50 was 9 nM.

The compound `O=C(c1cnc(OC2CCCOC2)c(C2CC2)c1)N1C[C@@H]2CN(C(=O)[C@@H]3CCc4[nH]nnc4C3)C[C@H]2C1` (stereo partly drawn) [Example 2.12, ((3aS,6aS)-5-(5-cyclopropyl-6-(tetrahydro-2H-pyran-3-yloxy)nicotinoyl)hexahydropyrrolo[3,4-c]pyrrol-2(1H)-yl)((R)-4,5,6,7-tetrahydro-1H-benzo[d][1,2,3]triazol-5-yl)methanone] displayed an IC50 of 11 nM.

Turning to `NS(=O)(=O)c1ccc(C(=O)N2C[C@H]3CN(C(=O)c4cnc(OC5CCCOC5)c(C5CC5)c4)C[C@@H]3C2)nc1` (stereo partly drawn) [Example 2.13, 6-((3aR,6aR)-5-(5-cyclopropyl-6-(tetrahydro-2H-pyran-3-yloxy)nicotinoyl)octahydropyrrolo[3,4-c]pyrrole-2-carbonyl)pyridine-3-sulfonamide], half-maximal inhibition (IC50) was put at 10 nM.

On to `NS(=O)(=O)c1ccc(C(=O)N2C[C@H]3CN(C(=O)c4cc(OCC5CCOCC5)nc(C5CC5)c4)C[C@@H]3C2)nc1` [Example 2.14, 6-((3aR,6aR)-5-(2-cyclopropyl-6-((tetrahydro-2H-pyran-4-yl)methoxy)isonicotinoyl)octahydropyrrolo[3,4-c]pyrrole-2-carbonyl)pyridine-3-sulfonamide], for which half-maximal inhibition (IC50) required 6 nM.

`O=C(c1cc(OCC2CCCOC2)nc(C2CC2)c1)N1C[C@@H]2CN(C(=O)c3ccc4[nH]nnc4c3)C[C@H]2C1` (stereo partly drawn) [Example 2.15, ((3aS,6aS)-5-(1H-benzo[d][1,2,3]triazole-5-carbonyl)hexahydropyrrolo[3,4-c]pyrrol-2(1H)-yl)(2-cyclopropyl-6-((tetrahydro-2H-pyran-3-yl)methoxy)pyridin-4-yl)methanone] gave an IC50 of 12 nM.

(Values after US9802944B2, “Bicyclic compounds as autotaxin (ATX) and lysophosphatidic acid (LPA) production inhibitors” (Hoffmann-La Roche Inc., priority 2014, dated 2017).)
